Results: ChEMBL document CHEMBL5696443 (Clin Cancer Res, 2016)
Activity calls are given as the source filed them. The calls are words filed in the database; no cut-off is given here.

Columns and labels:
[1] = molecular target: CDK6/cyclin D3 (Homo sapiens) (UniProt P30281+Q00534); assay: Inhibition of human CDK6/CyclinD3 at 1 uM using RB protein as substrate in presence of [gamma33P]-ATP by HotSpot assay relative to control; type: protein-complex assay
[2] = molecular target: Serine/threonine-protein kinase 17A (Homo sapiens) (UniProt Q9UEE5); assay: Inhibition of human STK17A at 1 uM using KKLNRTLSFAEPG as substrate in presence of [gamma33P]-ATP by HotSpot assay relative to control
[3] = molecular target: CDK7/Cyclin H/MNAT1 (Homo sapiens) (UniProt P51946+P50613+P51948); assay: Inhibition of human CDK7/CyclinH/MAT1 at 1 uM using MBP as substrate in presence of [gamma33P]-ATP by HotSpot assay relative to control; type: protein-complex assay
BaF3 [4] = assay: In vivo inhibition of ALK signaling in mouse implanted with mouse BaF3 cells expressing EML4-ALK L1196M mutant assessed as inhibition of ALK phosphorylation at 25 mg/kg, po administered as single dose and measured at 6 to 24 hrs by ELISA; type: functional, organism-based; settings: time 6-24 hrs
[5] = molecular target: Serine/threonine-protein kinase PLK1 (Homo sapiens, UniProt P53350); assay: Inhibition of human PLK1 using casein as substrate in presence of [gamma33P]-ATP by HotSpot assay
[6] = molecular target: Rhodopsin kinase GRK7 (Homo sapiens) (UniProt Q8WTQ7); assay: Inhibition of human GRK7 at 1 uM using casein as substrate in presence of [gamma33P]-ATP by HotSpot assay relative to control
[7] = molecular target: Calcium/calmodulin-dependent protein kinase type 1 (Homo sapiens) (UniProt Q14012); assay: Inhibition of human CAMK1a at 1 uM using KKALRRQETVDAL as substrate in presence of [gamma33P]-ATP by HotSpot assay relative to control
[8] = molecular target: T1, Hepatocyte growth factor receptor (Homo sapiens, UniProt P08581); assay: Inhibition of human MET at 1 uM using poly (Glu, Tyr)4:1 as substrate in presence of [gamma33P]-ATP by HotSpot assay relative to control
[9] = molecular target: Tyrosine-protein kinase BTK (Homo sapiens, UniProt Q06187); assay: Inhibition of human BTK using poly (Glu, Tyr)4:1 as substrate in presence of [gamma33P]-ATP by HotSpot assay
[10] = molecular target: Serine/threonine-protein kinase 10 (Homo sapiens, UniProt O94804); assay: Inhibition of human STK10 using RLGRDKYKTLRQIRQ as substrate in presence of [gamma33P]-ATP by HotSpot assay
[11] = molecular target: Protein kinase C theta type (Homo sapiens) (UniProt Q04759); assay: Inhibition of human PKCtheta at 1 uM using ERMRPRKRQGSVRRRV as substrate in presence of [gamma33P]-ATP by HotSpot assay relative to control
[12] = molecular target: T1, Hepatocyte growth factor receptor; assay: Inhibition of human MET using poly (Glu, Tyr)4:1 as substrate in presence of [gamma33P]-ATP by HotSpot assay
BaF3 [13] = assay: Antitumor activity against mouse BaF3 cells expressing EML4-ALK L1196M mutant implanted in mouse assessed as tumor regression at 50 mg/kg, po administered once daily and measured after 8 days relative to control; type: functional; settings: time 8 day
[14] = system: EML4-ALK (Homo sapiens), Q9UM73+Q9HC35 [D1203N]; settings: BaF3, dose 500.0 nmol/L, time 3-5 weeks
BaF3 [15] = assay: Antitumor activity against mouse BaF3 cells expressing native EML4-ALK implanted in mouse assessed as tumor regression at 25 mg/kg, po administered once daily and measured after 8 days relative to control; type: functional; settings: time 8 day
[16] = molecular target: Ephrin type-A receptor 4 (Homo sapiens) (UniProt P54764); assay: Inhibition of human EPHA4 at 1 uM using poly (Glu, Tyr)4:1 as substrate in presence of [gamma33P]-ATP by HotSpot assay relative to control
[17] = molecular target: Ephrin type-A receptor 3 (Homo sapiens) (UniProt P29320); assay: Inhibition of human EPHA3 at 1 uM using poly (Glu, Tyr)4:1 as substrate in presence of [gamma33P]-ATP by HotSpot assay relative to control
[18] = system: EML4-ALK (Homo sapiens), Q9UM73+Q9HC35 [F1174L]; settings: BaF3, dose 500.0 nmol/L, time 3-5 weeks
[19] = molecular target: Calcium/calmodulin-dependent protein kinase type II subunit gamma (Homo sapiens, UniProt Q13555); assay: Inhibition of human CAMK2G using KKLNRTLSFAEPG as substrate in presence of [gamma33P]-ATP by HotSpot assay
[20] = molecular target: Dual specificity tyrosine-phosphorylation-regulated kinase 3 (Homo sapiens) (UniProt O43781); assay: Inhibition of human DYRK3 at 1 uM using RRRFRPASPLRGPPK as substrate in presence of [gamma33P]-ATP by HotSpot assay relative to control
[21] = molecular target: Protein kinase C beta type (Homo sapiens) (UniProt P05771); assay: Inhibition of human PKCb2 at 1 uM using ERMRPRKRQGSVRRRV as substrate in presence of [gamma33P]-ATP by HotSpot assay relative to control
[22] = molecular target: Macrophage-stimulating protein receptor (Homo sapiens) (UniProt Q04912); assay: Inhibition of human MST1R at 1 uM using KKSRGDYMTMQIG as substrate in presence of [gamma33P]-ATP by HotSpot assay relative to control
[23] = molecular target: Tyrosine-protein kinase receptor TYRO3 (Homo sapiens) (UniProt Q06418); assay: Inhibition of human TYRO3 at 1 uM using poly (Glu, Tyr)4:1 as substrate in presence of [gamma33P]-ATP by HotSpot assay relative to control
[24] = molecular target: Serine/threonine-protein kinase STK11 (Homo sapiens) (UniProt Q15831); assay: Inhibition of human STK11 at 1 uM using LSNLYHQGKFLQTFCGSPLYRRR as substrate in presence of [gamma33P]-ATP by HotSpot assay relative to control
[25] = molecular target: Tyrosine-protein kinase CSK (Homo sapiens, UniProt P41240); assay: Inhibition of human CSK at 1 uM using poly (Glu, Tyr)4:1 as substrate in presence of [gamma33P]-ATP by HotSpot assay relative to control
[26] = molecular target: Receptor-interacting serine/threonine-protein kinase 2 (Homo sapiens) (UniProt O43353); assay: Inhibition of human RIPK2 at 1 uM using MBP as substrate in presence of [gamma33P]-ATP by HotSpot assay relative to control
[27] = molecular target: Fibroblast growth factor receptor 2 (Homo sapiens, UniProt P21802); assay: Inhibition of human FGFR2 using poly (Glu, Tyr)4:1 as substrate in presence of [gamma33P]-ATP by HotSpot assay
[28] = molecular target: Serine/threonine-protein kinase 4 (Homo sapiens, UniProt Q13043); assay: Inhibition of human STK4 using KKSRGDYMTMQIG as substrate in presence of [gamma33P]-ATP by HotSpot assay

T1 sequence (P08581 whole entry): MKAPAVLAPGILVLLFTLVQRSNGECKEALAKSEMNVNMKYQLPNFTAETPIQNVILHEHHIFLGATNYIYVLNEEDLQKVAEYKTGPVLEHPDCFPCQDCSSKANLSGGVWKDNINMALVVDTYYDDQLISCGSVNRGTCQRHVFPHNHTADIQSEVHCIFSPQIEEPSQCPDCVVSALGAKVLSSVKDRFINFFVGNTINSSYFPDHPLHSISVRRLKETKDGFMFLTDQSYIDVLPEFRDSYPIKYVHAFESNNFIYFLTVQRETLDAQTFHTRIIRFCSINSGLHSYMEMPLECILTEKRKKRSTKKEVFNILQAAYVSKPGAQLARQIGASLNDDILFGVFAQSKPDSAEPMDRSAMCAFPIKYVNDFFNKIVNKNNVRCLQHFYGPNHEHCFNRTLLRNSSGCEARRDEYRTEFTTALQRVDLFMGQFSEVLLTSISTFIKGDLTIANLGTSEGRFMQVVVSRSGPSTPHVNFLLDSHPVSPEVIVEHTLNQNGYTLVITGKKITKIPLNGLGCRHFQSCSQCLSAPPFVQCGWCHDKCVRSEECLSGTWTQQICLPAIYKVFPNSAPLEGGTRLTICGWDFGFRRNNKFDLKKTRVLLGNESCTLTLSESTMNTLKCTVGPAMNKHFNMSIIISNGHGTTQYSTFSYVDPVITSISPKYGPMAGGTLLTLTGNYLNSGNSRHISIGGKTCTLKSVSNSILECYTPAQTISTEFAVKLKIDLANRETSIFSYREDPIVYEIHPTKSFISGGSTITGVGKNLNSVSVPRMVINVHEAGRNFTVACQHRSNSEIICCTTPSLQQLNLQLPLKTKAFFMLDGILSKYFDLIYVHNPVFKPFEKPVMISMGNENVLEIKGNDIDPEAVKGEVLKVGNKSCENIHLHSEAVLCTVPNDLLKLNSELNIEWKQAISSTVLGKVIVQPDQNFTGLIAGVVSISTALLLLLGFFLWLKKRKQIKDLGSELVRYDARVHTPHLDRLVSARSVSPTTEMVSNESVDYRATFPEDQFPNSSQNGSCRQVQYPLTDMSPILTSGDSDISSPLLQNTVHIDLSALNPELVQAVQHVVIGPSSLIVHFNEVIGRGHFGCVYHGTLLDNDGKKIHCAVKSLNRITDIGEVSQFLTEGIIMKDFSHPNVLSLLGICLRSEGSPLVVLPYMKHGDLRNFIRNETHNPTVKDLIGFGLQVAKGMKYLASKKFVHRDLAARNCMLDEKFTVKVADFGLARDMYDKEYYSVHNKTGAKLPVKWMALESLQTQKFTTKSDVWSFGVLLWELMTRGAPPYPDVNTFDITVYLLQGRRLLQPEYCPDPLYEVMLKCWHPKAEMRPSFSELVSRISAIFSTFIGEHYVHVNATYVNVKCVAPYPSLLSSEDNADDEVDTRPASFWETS
Ephrin type-A receptor 4 (Homo sapiens), sequence (P54764 whole entry): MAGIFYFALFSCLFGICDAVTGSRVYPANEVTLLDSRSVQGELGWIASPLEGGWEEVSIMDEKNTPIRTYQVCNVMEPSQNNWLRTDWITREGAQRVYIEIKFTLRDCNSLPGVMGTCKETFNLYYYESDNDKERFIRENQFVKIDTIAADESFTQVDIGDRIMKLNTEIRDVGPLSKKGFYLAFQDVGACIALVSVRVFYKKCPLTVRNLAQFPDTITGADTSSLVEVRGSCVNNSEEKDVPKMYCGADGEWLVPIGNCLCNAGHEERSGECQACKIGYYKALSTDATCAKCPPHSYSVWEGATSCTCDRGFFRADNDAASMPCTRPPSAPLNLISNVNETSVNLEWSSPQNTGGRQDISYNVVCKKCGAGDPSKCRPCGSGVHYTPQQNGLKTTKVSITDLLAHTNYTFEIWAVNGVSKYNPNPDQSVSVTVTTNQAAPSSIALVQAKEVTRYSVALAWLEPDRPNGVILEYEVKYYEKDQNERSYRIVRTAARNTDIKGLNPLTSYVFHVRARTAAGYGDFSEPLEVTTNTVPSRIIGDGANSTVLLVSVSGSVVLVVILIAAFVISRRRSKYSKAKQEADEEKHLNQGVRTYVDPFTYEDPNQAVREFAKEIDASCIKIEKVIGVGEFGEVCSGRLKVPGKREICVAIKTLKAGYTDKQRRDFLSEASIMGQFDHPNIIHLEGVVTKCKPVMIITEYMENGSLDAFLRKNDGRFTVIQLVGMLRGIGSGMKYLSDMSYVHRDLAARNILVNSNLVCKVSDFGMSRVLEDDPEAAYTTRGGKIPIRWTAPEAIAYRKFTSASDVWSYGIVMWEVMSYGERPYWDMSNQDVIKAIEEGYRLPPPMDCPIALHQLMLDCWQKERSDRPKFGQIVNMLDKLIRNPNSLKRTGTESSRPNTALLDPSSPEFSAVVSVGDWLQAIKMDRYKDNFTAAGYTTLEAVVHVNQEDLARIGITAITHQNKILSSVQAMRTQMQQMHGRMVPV
Tyrosine-protein kinase BTK, sequence (Q06187 whole entry): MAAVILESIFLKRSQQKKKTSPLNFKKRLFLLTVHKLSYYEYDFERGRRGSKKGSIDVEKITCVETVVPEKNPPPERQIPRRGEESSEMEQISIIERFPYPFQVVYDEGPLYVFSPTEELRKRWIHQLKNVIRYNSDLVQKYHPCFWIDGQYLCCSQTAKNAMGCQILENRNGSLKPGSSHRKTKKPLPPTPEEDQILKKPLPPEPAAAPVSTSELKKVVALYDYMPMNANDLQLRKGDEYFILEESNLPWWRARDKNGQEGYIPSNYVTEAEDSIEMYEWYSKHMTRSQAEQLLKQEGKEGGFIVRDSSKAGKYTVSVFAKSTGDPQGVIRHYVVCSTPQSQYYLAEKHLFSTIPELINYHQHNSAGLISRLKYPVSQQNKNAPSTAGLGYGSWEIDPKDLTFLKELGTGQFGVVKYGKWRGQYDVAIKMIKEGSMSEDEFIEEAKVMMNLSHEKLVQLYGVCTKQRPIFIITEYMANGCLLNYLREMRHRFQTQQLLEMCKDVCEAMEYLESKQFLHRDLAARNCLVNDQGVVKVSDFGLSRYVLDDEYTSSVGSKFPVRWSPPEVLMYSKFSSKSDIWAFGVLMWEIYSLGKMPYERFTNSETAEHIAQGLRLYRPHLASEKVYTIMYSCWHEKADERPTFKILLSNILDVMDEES
Dual specificity tyrosine-phosphorylation-regulated kinase 3 (Homo sapiens), sequence (O43781 whole entry): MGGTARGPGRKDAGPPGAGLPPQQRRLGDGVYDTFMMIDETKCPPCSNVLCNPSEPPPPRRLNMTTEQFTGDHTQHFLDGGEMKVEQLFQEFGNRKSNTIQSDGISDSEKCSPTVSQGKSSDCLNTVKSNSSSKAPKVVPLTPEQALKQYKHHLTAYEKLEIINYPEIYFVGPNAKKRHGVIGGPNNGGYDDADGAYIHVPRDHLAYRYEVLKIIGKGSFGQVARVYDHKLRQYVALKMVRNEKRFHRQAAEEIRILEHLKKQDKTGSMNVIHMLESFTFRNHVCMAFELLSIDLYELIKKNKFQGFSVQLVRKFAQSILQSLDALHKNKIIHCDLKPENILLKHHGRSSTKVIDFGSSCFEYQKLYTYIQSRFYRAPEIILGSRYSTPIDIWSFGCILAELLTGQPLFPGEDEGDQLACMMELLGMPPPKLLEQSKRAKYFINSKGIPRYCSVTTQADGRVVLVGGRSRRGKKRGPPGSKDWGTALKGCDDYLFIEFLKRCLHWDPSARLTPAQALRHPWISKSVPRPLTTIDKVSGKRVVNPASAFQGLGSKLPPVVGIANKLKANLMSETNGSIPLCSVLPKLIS
Macrophage-stimulating protein receptor (Homo sapiens), sequence (Q04912 25-304 limits assumed): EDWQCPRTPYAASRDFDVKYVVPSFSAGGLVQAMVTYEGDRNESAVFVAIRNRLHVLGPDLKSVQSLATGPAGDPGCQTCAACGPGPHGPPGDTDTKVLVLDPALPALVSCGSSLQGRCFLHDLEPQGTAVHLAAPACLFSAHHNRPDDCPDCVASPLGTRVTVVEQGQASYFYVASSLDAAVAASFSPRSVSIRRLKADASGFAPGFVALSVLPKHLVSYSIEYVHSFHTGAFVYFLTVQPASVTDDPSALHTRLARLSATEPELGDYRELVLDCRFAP
Macrophage-stimulating protein receptor (Homo sapiens), sequence (Q04912 310-1400 limits assumed): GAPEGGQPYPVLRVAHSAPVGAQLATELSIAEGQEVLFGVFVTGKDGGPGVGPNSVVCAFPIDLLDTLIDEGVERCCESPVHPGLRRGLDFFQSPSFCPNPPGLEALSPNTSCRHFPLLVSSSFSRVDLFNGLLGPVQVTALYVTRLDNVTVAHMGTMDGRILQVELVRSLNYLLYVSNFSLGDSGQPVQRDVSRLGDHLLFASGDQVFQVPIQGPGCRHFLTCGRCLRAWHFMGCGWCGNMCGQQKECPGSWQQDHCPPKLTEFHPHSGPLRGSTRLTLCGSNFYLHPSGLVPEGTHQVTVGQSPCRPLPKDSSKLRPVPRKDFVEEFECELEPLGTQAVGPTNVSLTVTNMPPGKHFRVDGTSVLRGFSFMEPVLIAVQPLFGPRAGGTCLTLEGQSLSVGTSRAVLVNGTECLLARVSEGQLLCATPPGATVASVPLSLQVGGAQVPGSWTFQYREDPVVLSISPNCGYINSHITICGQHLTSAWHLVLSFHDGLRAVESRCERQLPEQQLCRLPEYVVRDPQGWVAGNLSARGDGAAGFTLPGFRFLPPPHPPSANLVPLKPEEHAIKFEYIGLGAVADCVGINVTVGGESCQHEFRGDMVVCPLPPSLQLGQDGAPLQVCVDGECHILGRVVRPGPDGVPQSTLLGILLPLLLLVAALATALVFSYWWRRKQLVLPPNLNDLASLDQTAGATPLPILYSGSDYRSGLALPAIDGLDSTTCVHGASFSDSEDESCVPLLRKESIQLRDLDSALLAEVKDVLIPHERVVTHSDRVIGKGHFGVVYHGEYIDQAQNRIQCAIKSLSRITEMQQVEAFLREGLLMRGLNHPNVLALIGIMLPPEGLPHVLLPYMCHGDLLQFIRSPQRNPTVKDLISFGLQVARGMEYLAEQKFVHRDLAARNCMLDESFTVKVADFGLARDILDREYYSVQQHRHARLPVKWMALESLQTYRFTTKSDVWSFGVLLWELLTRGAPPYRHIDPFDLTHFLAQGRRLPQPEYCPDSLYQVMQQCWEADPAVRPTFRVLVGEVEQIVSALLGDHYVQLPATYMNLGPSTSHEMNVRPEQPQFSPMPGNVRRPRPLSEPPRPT

In the case of `COc1cc(N2CCC(N3CCN(C)CC3)CC2)ccc1Nc1ncc(Cl)c(Nc2ccccc2P(C)(C)=O)n1` [BRIGATINIB], the inhibition [1] is reported as under 90%, the inhibition [2] is reported as under 90% and the inhibition [3] is reported as under 90%. For the same compound, the inhibition (BaF3 [4]) was “Active”, the IC50 [5] was 611 nM and the inhibition [6] was under 90%. It also gave an inhibition [7] of under 90%, an inhibition [8] of under 90% and an IC50 [9] of 674 nM. It also gave an IC50 [10] of 123 nM, an inhibition [11] of under 90% and an IC50 [12] of over 1000 nM. The Activity (BaF3 [13]) was 67%, the inhibition [14] was “Active” and the Activity (BaF3 [15]) was 100%. For the same compound, the inhibition [16] was under 90%, the inhibition [17] was under 90% and the inhibition [18] was “Active”. It also gave an IC50 [19] of 48 nM, an inhibition [20] of under 90% and an inhibition [21] of under 90%. The inhibition [22] was under 90%, the inhibition [23] was under 90% and the inhibition [24] was under 90%. The inhibition [25] was under 90%, the inhibition [26] was under 90% and the IC50 [27] was 228 nM. For the same compound, the IC50 [28] was over 1000 nM.
